Reference: patent US7378413B2, “2-amino-3-(alkyl)-pyrimidone derivatives” (Sanofi Aventis, priority 2000, dated 2008)

SMILES | melting point
Cn1c(NCCc2cccs2)nc(-c2ccncc2)cc1=O [Compound 19, 2-[[2-(thiophen-2-yl)ethyl]amino]-3-methyl-6-pyridin-4-ylpyrimidin-4(3H)-one] | 171.7 to 171.9 °C
Cn1c(NCCc2ccc(OCc3ccccc3)cc2)nc(-c2ccncc2)cc1=O [Compound 21, 2-[[2-(4-phenylmethoxyphenyl)ethyl]amino]-3-methyl-6-pyridin-4-ylpyrimidin-4(3H)-one] | 169.7 to 169.8 °C
Cn1c(NCCc2ccc(-c3ccccc3)cc2)nc(-c2ccncc2)cc1=O [Compound 22, 2-[[2-(4-phenylphenyl)ethyl]amino]-3-methyl-6-pyridin-4-ylpyrimidin-4(3H)-one] | 175.4 to 175.6 °C
O=c1cc(-c2ccncc2)nc(NCCCc2ccccc2)n1Cc1ccccc1 [Compound 28, 2-[[3-(phenyl)propyl]amino]-3-phenylmethyl-6-pyridin-4-ylpyrimidin-4(3H)-one] | 218 to 221 °C
COc1ccc2[nH]cc(CCNc3nc(-c4ccncc4)cc(=O)n3C)c2c1 [Compound 30, 2-[[2-(5-methoxy-1H-indol-3-yl)ethyl]amino]-3-methyl-6-pyridin-4-ylpyrimidin-4(3H)-one] | 242.7 to 243 °C
Cn1c(NCCc2c[nH]c3ccc(OCc4ccccc4)cc23)nc(-c2ccncc2)cc1=O [Compound 31, 2-[[2-(5-phenylmethoxy-1H-indol-3-yl)ethyl]amino]-3-methyl-6-pyridin-4-ylpyrimidin-4(3H)-one] | 168.4 to 168.6 °C
Cc1cccc2c(CCNc3nc(-c4ccncc4)cc(=O)n3C)c[nH]c12 [Compound 32, 2-[[2-(7-methyl-1H-indol-3-yl)ethyl]amino]-3-methyl-6-pyridin-4-ylpyrimidin-4 (3H)-one] | 217.2 to 217.3 °C
Cn1c(NC2Cc3ccccc3C2)nc(-c2ccncc2)cc1=O [Compound 37, 2-[(indan-2-yl)amino]-3-methyl-6-pyridin-4-ylpyrimidin-4(3H)-one] | 211.5 to 211.8 °C
Cn1c(NC2CCCCC2)nc(-c2ccncc2)cc1=O [Compound 46, 2-Cyclohexylamino-3-methyl-6-pyridin-4-yl-3H-pyrimidin-4-one] | 268 to 270 °C
CCCCNc1nc(-c2ccncc2)cc(=O)n1C [Compound 47, 2-Butylamino-3-methyl-6-pyridin-4-yl-3H-pyrimidin-4-one] | 180 to 182 °C
CCCCCNc1nc(-c2ccncc2)cc(=O)n1C [Compound 48, 3-Methyl-2-pentylamino-6-pyridin-4-yl-3H-pyrimidin-4-one] | 157 to 159 °C
CCCCCCNc1nc(-c2ccncc2)cc(=O)n1C [Compound 49, 2-Hexylamino-3-methyl-6-pyridin-4-yl-3H-pyrimidin-4-one] | 133 to 135 °C
CCCCCCCNc1nc(-c2ccncc2)cc(=O)n1C [Compound 50, 2-Heptylamino-3-methyl-6-pyridin-4-yl-3H-pyrimidin-4-one] | 121 to 123 °C
CCCCCCCCCNc1nc(-c2ccncc2)cc(=O)n1C [Compound 52, 3-Methyl-2-nonylamino-6-pyridin-4-yl-3H-pyrimidin-4-one] | 113 to 115 °C
CC(C)CCNc1nc(-c2ccncc2)cc(=O)n1C [Compound 55, 3-Methyl-2-(3-methyl-butylamino)-6-pyridin-4-yl-3H-pyrimidin-4-one] | 213 to 217 °C
Cn1c(NCC2CCCCC2)nc(-c2ccncc2)cc1=O [Compound 56, 2-(Cyclohexylmethyl-amino)-3-methyl-6-pyridin-4-yl-3H-pyrimidin-4-one] | 218 to 220 °C
CCCOCCNc1nc(-c2ccncc2)cc(=O)n1C [Compound 57, 3-Methyl-2-(2-propoxy-ethylamino)-6-pyridin-4-yl-3H-pyrimidin-4-one] | 147 to 150 °C
Cn1c(NCCCC2CCCCC2)nc(-c2ccncc2)cc1=O [Compound 58, 2-(3-Cyclohexyl-propylamino)-3-methyl-6-pyridin-4-yl-3H-pyrimidin-4-one] | 177 to 180 °C
